Measurements taken from patent US8148391B2 (Cephalon, Inc., priority 2006, dated 2012).
Read-outs that look alike come from different tables or passages of the source. Values belong to the compound of their own block, whether it stands above or below them.

What was measured:
[1] = molecular target: T1, baculovirus-expressed ALK (Homo sapiens, UniProt Q9UM73); experiment: ALK Kinase Assay (ELISA-type, time-resolved fluorescence); format: biochemical
T1 construct: host or cells: baculovirus expression system
T1 sequence (Q9UM73 19-1620): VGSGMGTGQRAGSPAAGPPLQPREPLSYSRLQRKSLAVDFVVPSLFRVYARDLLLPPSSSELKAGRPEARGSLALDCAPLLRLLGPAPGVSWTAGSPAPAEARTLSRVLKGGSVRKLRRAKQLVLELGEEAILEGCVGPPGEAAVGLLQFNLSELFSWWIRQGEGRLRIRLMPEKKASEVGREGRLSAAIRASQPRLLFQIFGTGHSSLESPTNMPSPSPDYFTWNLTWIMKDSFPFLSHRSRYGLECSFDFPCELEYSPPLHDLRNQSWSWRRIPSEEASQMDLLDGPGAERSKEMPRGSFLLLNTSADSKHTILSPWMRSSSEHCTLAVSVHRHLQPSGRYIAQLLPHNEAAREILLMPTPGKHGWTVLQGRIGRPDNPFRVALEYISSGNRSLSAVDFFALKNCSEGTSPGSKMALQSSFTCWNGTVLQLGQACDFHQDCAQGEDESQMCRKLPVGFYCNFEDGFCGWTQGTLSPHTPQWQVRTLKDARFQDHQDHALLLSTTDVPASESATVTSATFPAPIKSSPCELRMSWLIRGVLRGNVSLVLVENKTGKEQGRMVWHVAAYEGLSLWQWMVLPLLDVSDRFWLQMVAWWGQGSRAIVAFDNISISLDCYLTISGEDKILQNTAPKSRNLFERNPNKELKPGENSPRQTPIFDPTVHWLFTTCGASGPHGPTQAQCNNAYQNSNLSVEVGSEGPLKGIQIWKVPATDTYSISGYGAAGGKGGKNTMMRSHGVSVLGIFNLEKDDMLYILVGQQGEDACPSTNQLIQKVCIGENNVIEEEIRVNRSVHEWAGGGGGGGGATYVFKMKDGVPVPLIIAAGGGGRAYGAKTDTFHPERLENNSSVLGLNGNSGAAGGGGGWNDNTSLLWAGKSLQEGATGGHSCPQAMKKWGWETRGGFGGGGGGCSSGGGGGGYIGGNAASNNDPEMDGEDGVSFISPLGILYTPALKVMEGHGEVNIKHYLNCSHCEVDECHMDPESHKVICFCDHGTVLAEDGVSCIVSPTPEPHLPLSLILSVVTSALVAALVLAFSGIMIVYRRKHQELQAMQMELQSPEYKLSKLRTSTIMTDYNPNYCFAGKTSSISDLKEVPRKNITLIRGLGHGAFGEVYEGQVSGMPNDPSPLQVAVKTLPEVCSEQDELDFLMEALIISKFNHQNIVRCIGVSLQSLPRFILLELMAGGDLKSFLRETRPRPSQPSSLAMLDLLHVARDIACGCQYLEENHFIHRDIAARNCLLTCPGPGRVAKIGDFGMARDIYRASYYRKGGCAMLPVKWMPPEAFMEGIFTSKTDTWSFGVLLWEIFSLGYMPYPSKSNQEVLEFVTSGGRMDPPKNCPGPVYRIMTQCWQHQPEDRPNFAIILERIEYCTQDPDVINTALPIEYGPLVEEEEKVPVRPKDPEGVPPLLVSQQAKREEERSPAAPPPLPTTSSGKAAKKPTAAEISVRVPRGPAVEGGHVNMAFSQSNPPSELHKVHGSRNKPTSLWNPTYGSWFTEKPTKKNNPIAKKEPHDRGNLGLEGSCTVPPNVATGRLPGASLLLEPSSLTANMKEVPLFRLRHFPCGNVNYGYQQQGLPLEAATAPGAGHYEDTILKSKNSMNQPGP
Outline: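 Plates coated with phospholipase C-γ substrate (10 μg/mL in TBS); reaction started with 30 ng/ml ALK and run 15 min at 37° C. Phosphorylated substrate detected with Eu-N1-labeled PT66 antibody. IC50 from sigmoidal variable-slope fit of percent inhibition vs log concentration.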

[2] = molecular target: T2, c-Met (cytoplasmic domain) (Homo sapiens, UniProt P08581); experiment: c-Met Kinase Assay (same methods as for ALK, with modifications); format: biochemical
T2 construct: 10 ng/mL c-Met (cytoplasmic domain, Invitrogen Corporation #PV3143); purchased Invitrogen Corporation PV3143
T2 sequence (P08581 956-1390 limits assumed): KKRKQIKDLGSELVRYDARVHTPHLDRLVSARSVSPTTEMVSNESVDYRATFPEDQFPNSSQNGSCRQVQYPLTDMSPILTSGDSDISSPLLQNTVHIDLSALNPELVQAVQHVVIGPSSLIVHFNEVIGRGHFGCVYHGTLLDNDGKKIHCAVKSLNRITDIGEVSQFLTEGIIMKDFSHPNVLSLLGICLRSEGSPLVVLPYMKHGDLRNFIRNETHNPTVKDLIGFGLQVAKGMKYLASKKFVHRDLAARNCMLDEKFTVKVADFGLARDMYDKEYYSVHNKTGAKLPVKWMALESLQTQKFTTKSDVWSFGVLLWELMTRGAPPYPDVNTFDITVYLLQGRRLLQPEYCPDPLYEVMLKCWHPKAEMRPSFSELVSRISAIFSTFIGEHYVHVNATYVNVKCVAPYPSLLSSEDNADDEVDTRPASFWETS
Outline: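 Europium-labeled PT66 antibody (Eu-N1) detects substrate phosphorylation on wells coated with phospholipase C-γ at 10 μg/mL. The kinase, the cytoplasmic domain of c-Met at 10 ng/mL, starts the reaction, which proceeds 15 minutes at 37° C.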

[3] = ALK kinase inhibition, 1 μM ATP (Km level), read-out: ALK Activity
[4] = c-Met kinase inhibition, 1 μM ATP (Km level), read-out: cMet Activity
[5] = ALK kinase inhibition, 1 μM ATP, read-out: ALK Activity
[6] = c-Met kinase inhibition, 1 μM ATP, read-out: cMet Activity
[7] = 1 μM ATP (Km level), read-out: ALK Activity (ALK Kinase Inhibition, IC50)
[8] = 1 μM ATP (Km level), read-out: cMet Activity (c-Met Kinase Inhibition, IC50)
[9] = 1 μM ATP (Km level), 30 ng/ml ALK, 37° C., 15 minutes, read-out: ALK Activity (ALK kinase inhibition, IC50 class)
[10] = 1 μM ATP (Km level), 10 ng/mL c-Met, read-out: cMet Activity (c-Met kinase inhibition, IC50 class)

IC50 [1, 3]: < 100 nM
IC50 [2, 4]: < 100 nM
Compound: CNC(=O)c1ccccc1Nc1nc(Nc2ccc3c(c2)CCN(C[C@@H](O)C(F)(F)F)CC3)ncc1Cl [Example 448, 2-{5-Chloro-2-[3-((R)-3,3,3-trifluoro-2-hydroxy-propyl)-2,3,4,5-tetrahydro-1H-benzo[d]azepin-7-ylamino]-pyrimidin-4-ylamino}-N-methyl-benzamide]

IC50 [1, 3]: < 100 nM
IC50 [2, 4]: 100 to 1000 nM
Compound: CNS(=O)(=O)c1ccccc1Nc1nc(Nc2ccc3c(c2)C2CC3CN(C(C)C)C2)ncc1Cl (centres unmarked) [Example 159, 2-[5-Chloro-2-(10-isopropyl-10-aza-tricyclo[6.3.1.0*2,7*]dodeca-2,4,6-trien-4-ylamino)-pyrimidin-4-ylamino]-N-methyl-benzenesulfonamide]

IC50 [1, 5]: < 100 nM
IC50 [2, 6]: > 10000 nM
Compound: COc1cc2c(cc1Nc1ncc(Cl)c(N[C@@H]3CCCC[C@H]3NS(C)(=O)=O)n1)NC(=O)CN(C(=O)C(F)(F)F)C2(C)C [Example 1463, N-((1R,2R)-2-{5-Chloro-2-[7-methoxy-5,5-dimethyl-2-oxo-4-(2,2,2-trifluoro-acetyl)-2,3,4,5-tetrahydro-1H-benzo[e][1,4]diazepin-8-ylamino]-pyrimidin-4-ylamino}-cyclohexyl)-methanesulfonamide]

IC50 [1, 7]: < 100 nM
IC50 [2, 8]: 100 to 1000 nM
Compound: COCCN1CCc2ccc(Nc3ncc(Cl)c(Nc4ccccc4-c4ncccn4)n3)cc2CC1 [Example 977, 5-Chloro-N*2*-[3-(2-methoxy-ethyl)-2,3,4,5-tetrahydro-1H-benzo[d]azepin-7-yl]-N*4*-(2-pyrimidin-2-yl-phenyl)-pyrimidine-2,4-diamine]

IC50 [1, 7]: 100 to 1000 nM
IC50 [2, 8]: 1000 to 10000 nM
Compound: CS(=O)(=O)N[C@@H]1CCCC[C@H]1Nc1nc(Nc2ccc3c(c2)CN(CCO)CCS3)ncc1Cl [Example 525, N-((1R,2R)-2-{-5-Chloro-2-[8-(2-hydroxy-ethyl)-6,7,8,9-tetrahydro-5-thia-8-azabenzo-cyclohepten-2-ylamino]-pyrimidin-4-ylamino}cyclohexyl)-methanesulfonamide]

IC50 [1, 3]: < 100 nM
IC50 [2, 4]: < 100 nM
Compound: CNC(=O)c1ccccc1Nc1nc(Nc2ccc3c(c2)N(C)CCN(C(=O)N(C)C)C3)ncc1Cl [Example 489, 8-[5-Chloro-4-(2-methylcarbamoyl-phenylamino)-pyrimidin-2-ylamino]-1-methyl-1,2,3,5-tetrahydro-benzo[e][1,4]diazepine-4-carboxylic acid dimethylamide]

IC50 [1, 5]: < 100 nM
IC50 [2, 6]: > 10000 nM
Compound: COc1cc2c(cc1Nc1ncc(Cl)c(N[C@@H]3CCCC[C@H]3NS(C)(=O)=O)n1)NC(=O)CN(C(C)=O)C2 [Example 1657, N-{(1R,2R)-2-[2-(4-Acetyl-7-methoxy-2-oxo-2,3,4,5-tetrahydro-1H-benzo[e][1,4]di-azepin-8-ylamino)-5-chloro-pyrimidin-4-ylamino]-cyclohexyl}-methanesulfonamide]

IC50 [1, 9]: 100 to 1000 nM
IC50 [2, 10]: 100 to 1000 nM
Compound: C#CCNC(=O)c1cccc(F)c1Nc1nc(Nc2ccc3c(c2)OCCCN3C(=O)OC(C)C)ncc1Cl [Example 1433, 3-[5-Chloro-4-(2-fluoro-6-prop-2-ynylcarbamoyl-phenylamino)-pyrimidin-2-ylamino]-7,8-dihydro-6H-5-oxa-9-aza-benzocycloheptene-9-carboxylic acid isopropyl ester]

IC50 [1, 9]: < 100 nM
IC50 [2, 10]: 1000 to 10000 nM
Compound: COc1cc2c(cc1Nc1ncc(Cl)c(Nc3ccccc3S(C)(=O)=O)n1)CCN(CC(=O)N(C)C)CC2 [Example 1142, 2-{7-[5-Chloro-4-(2-methanesulfonyl-phenylamino)-pyrimidin-2-ylamino]-8-methoxy-1,2,4,5-tetrahydro-benzo[d]azepin-3-yl}-N,N-dimethyl-acetamide]

IC50 [1, 5]: 1000 to 10000 nM
IC50 [2, 6]: 100 to 1000 nM
Compound: Cc1noc(-c2cccc(F)c2Nc2nc(Nc3ccc4c(c3)CCOC(=O)N4C)ncc2Cl)n1 [Example 1785, 2-{5-Chloro-4-[2-fluoro-6-(3-methyl-[1,2,4]oxadiazol-5-yl)-phenylamino]-pyrimidin-2-ylamino}-5-methyl-8,9-dihydro-5H-7-oxa-5-aza-benzocyclohepten-6-one]

IC50 [1, 5]: < 100 nM
IC50 [2, 6]: < 100 nM
Compound: CNC(=O)c1cccc(F)c1Nc1nc(Nc2ccc3c(c2)CCCC(=O)N3CCOC)ncc1Br [Example 1472, 2-{5-Bromo-2-[1-(2-methoxy-ethyl)-2-oxo-2,3,4,5-tetrahydro-1H-benzo[b]azepin-7-ylamino]-pyrimidin-4-ylamino}-3-fluoro-N-methyl-benzamide]

IC50 [1, 9]: 100 to 1000 nM
IC50 [2, 10]: 100 to 1000 nM
Compound: COCCN1CCc2ccc(Nc3ncc(Cl)c(Nc4ccccc4C(=O)NCCCN(C)C)n3)cc2CC1 [Example 1401, 2-{5-Chloro-2-[3-(2-methoxy-ethyl)-2,3,4,5-tetrahydro-1H-benzo[d]azepin-7-ylamino]-pyrimidin-4-ylamino}-N-(3-dimethylamino-propyl)-benzamide]

IC50 [1, 5]: 1000 to 10000 nM
IC50 [2, 6]: 1000 to 10000 nM
Compound: CC(C)[C@@H](Nc1nc(Nc2ccc3c(c2)CC(=O)N(C)CC3)ncc1Cl)C(N)=O [Example 1822, (R)-2-[5-Chloro-2-(3-methyl-4-oxo-2,3,4,5-tetrahydro-1H-benzo[d]azepin-7-ylamino)-pyrimidin-4-ylamino]-3-methyl-butyramide]

IC50 [1, 7]: < 100 nM
IC50 [2, 8]: > 10000 nM
Compound: 5-Chloro-N*2*-[1-methoxy-7-(2,2,2-trifluoro-ethylamino)-6,7,8,9-tetrahydro-5H-benzocyclohepten-2-yl]-N*4*-methyl-N*4*-[2-(propane-2-sulfonyl)-phenyl]-pyrimidine-2,4-diamine [Example 680]

IC50 [1, 9]: 100 to 1000 nM
IC50 [2, 10]: 100 to 1000 nM
Compound: CCN1C(=O)CCCc2ccc(Nc3ncc(Cl)c(Nc4cccc(CC#N)c4)n3)cc21 [Example 1229, {3-[5-Chloro-2-(1-ethyl-2-oxo-2,3,4,5-tetrahydro-1H-1-benzazepin-8-ylamino)-pyrimidin-4-ylamino]-phenyl}-acetonitrile]

IC50 [1, 9]: < 100 nM
IC50 [2, 10]: > 10000 nM
Compound: CNC(=O)CN1CCc2cc(Nc3ncc(Cl)c(Nc4cc(Cl)ccc4OC)n3)c(OC)cc2CC1 [Example 1118, 2-{7-[5-Chloro-4-(5-chloro-2-methoxy-phenylamino)-pyrimidin-2-ylamino]-8-methoxy-1,2,4,5-tetrahydro-benzo[d]azepin-3-yl}-N-methyl-acetamide]

IC50 [1, 9]: < 100 nM
IC50 [2, 10]: 1000 to 10000 nM
Compound: COc1cccnc1-c1ccccc1Nc1nc(Nc2ccc3c(c2)CCC(N2CCOCC2)CC3)ncc1Cl (centres unmarked) [Example 1018, 5-Chloro-N*4*-[2-(3-methoxy-pyridin-2-yl)-phenyl]-N*2*-(7-morpholin-4-yl-6,7,8,9-tetrahydro-5H-benzocyclohepten-2-yl)-pyrimidine-2,4-diamine]

IC50 [1, 7]: < 100 nM
IC50 [2, 8]: > 10000 nM
Compound: COc1cc2c(cc1Nc1ncc(Cl)c(Nc3ccc(C)cc3S(=O)(=O)N(C)C)n1)CCN(CC(=O)N(C)C)CC2 [Example 830, 2-{7-[5-Chloro-4-(2-dimethylsulfamoyl-4-methyl-phenylamino)-pyrimidin-2-ylamino]-8-methoxy-1,2,4,5-tetrahydro-benzo[d]azepin-3-yl}-N,N-dimethyl-acetamide]

IC50 [1, 3]: < 100 nM
IC50 [2, 4]: 100 to 1000 nM
Compound: CCN1CCN(CC)c2cc(Nc3ncc(Cl)c(N[C@@H]4CCCC[C@H]4NS(C)(=O)=O)n3)ccc2C1 [Example 426, N-{(1R,2R)-2-[5-Chloro-2-(1,4-diethyl-2,3,4,5-tetrahydro-1H-benzo[e][1,4]diazepin-8-ylamino)-pyrimidin-4-ylamino]-cyclohexyl}-methanesulfonamide]
